Data from patent EP4748841A1, “BICYCLO[5,6] IMIDAZOLE PYRIMIDONE DERIVATIVE AND PREPARATION METHOD THEREFOR AND USE THEREOF” (Shujing Biopharma Co., Ltd, priority 2023, dated 2025).

Biological target: T1, Lp-PLA2 (Homo sapiens, UniProt Q13093)
T1 construct: from tissue; host or cells: pooled (mixed) human plasma
T1 sequence (Q13093 22-441): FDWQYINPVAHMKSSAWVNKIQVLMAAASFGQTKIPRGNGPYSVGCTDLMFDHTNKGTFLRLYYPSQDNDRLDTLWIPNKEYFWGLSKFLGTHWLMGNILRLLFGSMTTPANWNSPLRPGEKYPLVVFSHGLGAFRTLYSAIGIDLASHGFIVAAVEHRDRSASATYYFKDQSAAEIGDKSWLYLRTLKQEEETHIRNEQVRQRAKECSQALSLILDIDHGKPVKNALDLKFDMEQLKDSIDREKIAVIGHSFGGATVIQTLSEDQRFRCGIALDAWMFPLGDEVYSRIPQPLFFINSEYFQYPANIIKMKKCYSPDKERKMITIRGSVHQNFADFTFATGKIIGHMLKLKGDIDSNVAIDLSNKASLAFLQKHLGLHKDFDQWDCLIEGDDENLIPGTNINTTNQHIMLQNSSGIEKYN
Assay: Inhibitory activity against Lp-PLA2 in human plasma (Thio-PAF assay)
Type: biochemical
Conditions: 2-thio-PAF substrate, 30 min pre-incubation
Source text: The literature reports that 2-Thio-PAF, commercially available from Cayman Chemical, is a substrate for PAF hydrolase (PAF-AH). After its cleavage by PAF-AH, the free thiol released at the sn-2 position can react with 7-diethylamino-3-(4'-maleimidophenyl)-4-methylcoumarin (CPM), resulting in increased fluorescence. Thus, Lp-PLA2 inhibitors can prevent this cleavage, and no increase in fluorescence is observed. In this experiment, the human plasma assay employed the same thioester analog of PAF as described in the recombinant human Lp-PLA2 assay described above.
• (1) The Thio-PAF assay was performed as a quenched 75 µL assay. A compound source plate was prepared by preparing 1:4 (v/v) serial diluents of the compounds in pure DMSO in a 96-well microplate. • (2) 1 µL of each test compound from the compound source plate was transferred into a 96-well microplate containing 40 µL of pre-thawed mixed human plasma by a Rainin multichannel pipette, and the plasma was thawed at room temperature and centrifuged at 2000 rpm for 10 min. The plate was shaken on a microplate shaker for 2 min for uniform mixing. • (3) After 30 min of pre-incubation at room temperature, 10 µL of a substrate solution was added sequentially to the 96-well microplate described above by a Rainin multichannel pipette. The substrate solution contained 2.5 mM 2-thio-PAF (from an ethanol mother liquor), 32 µM CPM (from a DMSO mother liquor), and 3.2 mM N-ethylmaleimide (freshly prepared in DMSO for each experiment) in assay buffer (pH 7.4) consisting of 50 mM HEPES, 150 mM NaCl, and 1 mM CHAPS. After the addition was completed, the plate was immediately shaken for 2 min, and the reaction time for the substrate was 4 min in total. After the reaction was completed, the reaction was quenched with 25 µL of an aqueous solution of 5% trifluoroacetic acid. The plate was centrifuged at 1000 rpm for 1 min. • (4) The FLINT signal (FLINT380/480) was read using a microplate reader. • (5) IC50 data, curve fitting, and QC analyses were performed using GraphPad Prism 8.0 and Excel.

| Compound | IC50 |
| --- | --- |
| O=c1nc(OCc2cc(F)c(Oc3ccnc(C(F)(F)F)c3)c(F)c2)cc2n1C[C@H]1CCCN21 [Comparative Example 1, reference compound] | 16.4 nM |
| O=c1nc(OCc2cc(F)c(Oc3ccnc(C(F)(F)F)c3)c(F)c2)cc2n1C[C@H]1CCN21 [Example 34-R] | 3.3 nM |
